From ChEMBL document CHEMBL1201862, “PubChem BioAssay data set” (2004)
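How tested: cells in 96-well plates exposed to compound for 48 hours at five concentrations. GI50: concentration for 50% inhibition of growth.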 Active and inactive are the calls of the source. Cut-off read from the data, not from the text of the source: active = GI50 up to about 1.1 µM and inactive = higher.

Legend:
Assay in all cases: inhibition of tumour cell growth, NCI panel, 48 h
OVCAR-3 = tested on: OVCAR-3
RPMI-8226 = tested on: RPMI-8226
SF-268 = tested on: SF-268
UACC-257 = tested on: UACC-257
HOP-62 = tested on: HOP-62
NCI-H522 = tested on: NCI-H522
NCI-H460 = tested on: NCI-H460
SW-620 = tested on: SW-620
ACHN = tested on: ACHN
CCRF-CEM = tested on: CCRF-CEM
DU-145 = tested on: DU-145
UACC-62 = tested on: UACC-62
MDA-N = tested on: MDA-N
COLO 205 = tested on: COLO 205
NCI-H226 = tested on: NCI-H226
OVCAR-8 = tested on: OVCAR-8
PC-3 = tested on: PC-3
NCI-H23 = tested on: NCI-H23
Malme-3M = tested on: Malme-3M
A549 = tested on: A549
OVCAR-5 = tested on: OVCAR-5
Hs-578T = tested on: Hs-578T
K562 = tested on: K562
HCT-116 = tested on: HCT-116
RXF 393 = tested on: RXF 393
HL-60 = tested on: HL-60
SNB-75 = tested on: SNB-75
SNB-19 = tested on: SNB-19
SN12C = tested on: SN12C
MDA-MB-435 = tested on: MDA-MB-435
NCI/ADR-RES = tested on: NCI/ADR-RES
SK-OV-3 = tested on: SK-OV-3
HT-29 = tested on: HT-29
U-251 = tested on: U-251
SK-MEL-2 = tested on: SK-MEL-2
SF-295 = tested on: SF-295
A498 = tested on: A498
MDA-MB-231 = tested on: MDA-MB-231
SK-MEL-28 = tested on: SK-MEL-28
BT-549 = tested on: BT-549
MOLT-4 = tested on: MOLT-4
UO-31 = tested on: UO-31
IGROV-1 = tested on: IGROV-1
SF-539 = tested on: SF-539
M14 = tested on: M14
TK-10 = tested on: TK-10
OVCAR-4 = tested on: OVCAR-4
786-0 = tested on: 786-0
SK-MEL-5 = tested on: SK-MEL-5
EKVX = tested on: EKVX
KM12 = tested on: KM12
CAKI-1 = tested on: CAKI-1
HCT-15 = tested on: HCT-15
LOX IMVI = tested on: LOX IMVI
HCC 2998 = tested on: HCC 2998
SR = tested on: SR
MCF7 = tested on: MCF7
HOP-92 = tested on: HOP-92

CC1CC(N2CCOCC2)=Nc2ccccc2N1C (centres undefined)
GI50 (OVCAR-3): > 100 µM (inactive)
GI50 (RPMI-8226): > 100 µM (inactive)
GI50 (SF-268): > 100 µM (inactive)
GI50 (UACC-257): > 100 µM (inactive)
GI50 (HOP-62): > 100 µM (inactive)
GI50 (NCI-H522): 98.9 µM (inactive)
GI50 (NCI-H460): > 100 µM (inactive)
GI50 (SW-620): > 100 µM (inactive)
GI50 (ACHN): > 100 µM (inactive)
GI50 (CCRF-CEM): > 100 µM (inactive)
GI50 (DU-145): > 100 µM (inactive)
GI50 (UACC-62): > 100 µM (inactive)
GI50 (MDA-N): > 100 µM (inactive)
GI50 (COLO 205): > 100 µM (inactive)
GI50 (NCI-H226): > 100 µM (inactive)
GI50 (OVCAR-8): > 100 µM (inactive)
GI50 (PC-3): > 100 µM (inactive)
GI50 (NCI-H23): 80 µM (inactive)
GI50 (Malme-3M): 56.4 µM (inactive)
GI50 (A549): > 100 µM (inactive)
GI50 (OVCAR-5): > 100 µM (inactive)
GI50 (Hs-578T): > 100 µM (inactive)
GI50 (K562): > 100 µM (inactive)
GI50 (HCT-116): > 100 µM (inactive)
GI50 (RXF 393): > 100 µM (inactive)
GI50 (HL-60): > 100 µM (inactive)
GI50 (SNB-75): 0.0392 µM (active)
GI50 (SNB-19): > 100 µM (inactive)
GI50 (SN12C): > 100 µM (inactive)
GI50 (MDA-MB-435): > 100 µM (inactive)
GI50 (NCI/ADR-RES): > 100 µM (inactive)
GI50 (SK-OV-3): > 100 µM (inactive)
GI50 (HT-29): > 100 µM (inactive)
GI50 (U-251): > 100 µM (inactive)
GI50 (SK-MEL-2): > 100 µM (inactive)
GI50 (SF-295): > 100 µM (inactive)
GI50 (A498): > 100 µM (inactive)
GI50 (MDA-MB-231): > 100 µM (inactive)
GI50 (SK-MEL-28): > 100 µM (inactive)
GI50 (BT-549): > 100 µM (inactive)
GI50 (MOLT-4): 95.5 µM (inactive)
GI50 (UO-31): > 100 µM (inactive)
GI50 (IGROV-1): > 100 µM (inactive)
GI50 (SF-539): > 100 µM (inactive)
GI50 (M14): > 100 µM (inactive)
GI50 (TK-10): > 100 µM (inactive)
GI50 (OVCAR-4): > 100 µM (inactive)
GI50 (786-0): > 100 µM (inactive)
GI50 (SK-MEL-5): > 100 µM (inactive)
GI50 (EKVX): > 100 µM (inactive)
GI50 (KM12): > 100 µM (inactive)
GI50 (CAKI-1): > 100 µM (inactive)
GI50 (HCT-15): > 100 µM

CN(C)CCNC(=O)c1cc(NC(=O)c2cc(NC(=O)CC/C=C3/[C@@H]4CC[C@H]3N=N4)cn2C)cn1C
GI50 (OVCAR-3): > 100 µM (inactive)
GI50 (RPMI-8226): > 100 µM (inactive)
GI50 (SF-268): > 100 µM (inactive)
GI50 (UACC-257): > 100 µM (inactive)
GI50 (HOP-62): > 100 µM (inactive)
GI50 (NCI-H522): > 100 µM (inactive)
GI50 (LOX IMVI): > 100 µM (inactive)
GI50 (NCI-H460): > 100 µM (inactive)
GI50 (SW-620): > 100 µM (inactive)
GI50 (HCC 2998): > 100 µM (inactive)
GI50 (SR): > 100 µM (inactive)
GI50 (ACHN): > 100 µM (inactive)
GI50 (CCRF-CEM): > 100 µM (inactive)
GI50 (DU-145): > 100 µM (inactive)
GI50 (MDA-N): > 100 µM (inactive)
GI50 (COLO 205): > 100 µM (inactive)
GI50 (NCI-H226): > 100 µM (inactive)
GI50 (OVCAR-8): > 100 µM (inactive)
GI50 (PC-3): > 100 µM (inactive)
GI50 (NCI-H23): > 100 µM (inactive)
GI50 (Malme-3M): 70.3 µM (inactive)
GI50 (A549): > 100 µM (inactive)
GI50 (OVCAR-5): > 100 µM (inactive)
GI50 (MCF7): > 100 µM (inactive)
GI50 (Hs-578T): > 100 µM (inactive)
GI50 (K562): > 100 µM (inactive)
GI50 (HCT-116): > 100 µM (inactive)
GI50 (RXF 393): > 100 µM (inactive)
GI50 (HL-60): > 100 µM (inactive)
GI50 (SNB-75): > 100 µM (inactive)
GI50 (SNB-19): > 100 µM (inactive)
GI50 (SN12C): > 100 µM (inactive)
GI50 (MDA-MB-435): > 100 µM (inactive)
GI50 (NCI/ADR-RES): > 100 µM (inactive)
GI50 (HT-29): > 100 µM (inactive)
GI50 (U-251): > 100 µM (inactive)
GI50 (SK-MEL-2): > 100 µM (inactive)
GI50 (SF-295): > 100 µM (inactive)
GI50 (A498): > 100 µM (inactive)
GI50 (MDA-MB-231): > 100 µM (inactive)
GI50 (SK-MEL-28): > 100 µM (inactive)
GI50 (BT-549): > 100 µM (inactive)
GI50 (MOLT-4): > 100 µM (inactive)
GI50 (UO-31): > 100 µM (inactive)
GI50 (IGROV-1): > 100 µM (inactive)
GI50 (SF-539): > 100 µM (inactive)
GI50 (M14): > 100 µM (inactive)
GI50 (TK-10): > 100 µM (inactive)
GI50 (OVCAR-4): > 100 µM (inactive)
GI50 (786-0): > 100 µM (inactive)
GI50 (SK-MEL-5): > 100 µM (inactive)
GI50 (EKVX): > 100 µM (inactive)
GI50 (KM12): > 100 µM (inactive)
GI50 (CAKI-1): > 100 µM (inactive)
GI50 (HOP-92): > 100 µM (inactive)
GI50 (HCT-15): > 100 µM
